# Data: patent US20240067632A1, “WEE1 Degrading Compounds and Uses Thereof” (Bristol-Myers Squibb Company, priority 2022, published 2024)
# Like-named read-outs stand apart in the source and are kept apart here.
# Assays:
# WEE1 = target: T1, WEE1 (Homo sapiens, UniProt P30291+Q96SW2); experiment: WEE1-ePL degradation assay (LentiX-WEE1-ePL-GSPT1-ND cells, InCELL Hunter luminescence, 4 h); format: cell-based; conditions: 293T-LentiX WEE1-ePL cells; for 293T-LentiX WEE1-ePL Degradation 4 hr (Ymin): lower limit of the fit (0 = luciferase inhibitor, Ymax = DMSO control); for DC50: read-out: 293T-LentiX WEE1-ePL Degradation 4 hr (EC50)
# T1 construct: C-terminal ePL-tagged (DiscoverX, Fremont, CA) full-length WEE1 expression construct; expressed in transfected cells; host or cells: LentiX-HEK293T (Invitrogen), lentiviral transduction; co-expressing GSPT1-GN (G576N, lacking the first 158 amino acids)
# Method in brief: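 LentiX-HEK293T cells stably expressing C-terminally ePL-tagged full-length WEE1 were treated with compounds in a 10-point, 3-fold dilution series starting at 1 uM or 10 uM for 4 h at 37 °C. Remaining WEE1-ePL was detected by InCELL Hunter luminescence, and EC50, Ymin and Ymax came from a four-parameter logistic fit against DMSO control.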
# MKN45 cells = experiment: MKN45 cell proliferation assay (Cell-Titer-Glo, 120 h); format: cell-based; conditions: for EC50: Cell-Titer-Glo, growth inhibition, read-out: MKN45 Cell Prolif. 120 hr (EC50); for MKN45 Cell Prolif. 120 hr (Ymin-Obs): minimal percent of DMSO control observed in the concentrations tested
# Method in brief: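 Growth inhibition was read as blank-corrected Cell-Titer-Glo luminescence expressed as percent DMSO control after 120 h at 37 C, 400 cells/well. Compounds tested in triplicate as 10-point half-log series from 1 or 10 uM, 0.1% DMSO; four-parameter fit gave EC50, and lowest observed percent control was reported as Ymin-obs.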
SMILES,293T-LentiX WEE1-ePL Degradation 4 hr (Ymin) (WEE1),DC50 (WEE1) [nM],"EC50 (MKN45 cells; Homo sapiens, MKN-45, 120 h) [nM]",MKN45 Cell Prolif. 120 hr (Ymin-Obs) (MKN45 cells),EC50 (MKN45 cells) [nM]
"CO[C@H]1C[C@H](c2ccc3cc(CN4CC[C@H](Oc5ccc6c(c5)CN(C5CCC(=O)NC5=O)C6=O)C4)ccc3n2)C1 (stereo partly drawn) [drawing 578, 3-(1-oxo-5-{[(3S)-1-({2-[(1r,3r)-3-methoxycyclobutyl]quinolin-6-yl}methyl)pyrrolidin-3-yl]oxy}-2,3-dihydro-1H-isoindol-2-yl)piperidine-2,6-dione]",27.12,3.61,3.3,7.412,–
"CO[C@H]1C[C@H](c2ccc3cc(CN4CC[C@H](Oc5ccc6c(c5)CN(C5CCC(=O)NC5=O)C6=O)C4)ccc3n2)C1 (stereo partly drawn) [drawing 579, 3-(1-oxo-5-{[(3S)-1-({2-[(1r,3r)-3-methoxycyclobutyl]quinolin-6-yl}methyl)pyrrolidin-3-yl]oxy}-2,3-dihydro-1H-isoindol-2-yl)piperidine-2,6-dione]",21.76,12.8,–,8.615,4.89
"CO[C@H]1C[C@@H](c2ccc3cc(CN4CC[C@H](Oc5ccc6c(c5)CN(C5CCC(=O)NC5=O)C6=O)C4)ccc3n2)C1 (stereo partly drawn) [drawing 581, 3-(1-oxo-5-{[(3S)-1-({2-[(1s,3s)-3-methoxycyclobutyl]quinolin-6-yl}methyl)pyrrolidin-3-yl]oxy}-2,3-dihydro-1H-isoindol-2-yl)piperidine-2,6-dione]",23.8,5.35,–,7.75,2.41
